{"source": "patent US20080293749A1", "about": "“Pyrrolidine(thi)ones Substituted by Heterocyclic Substituents in The 3-Position” (Gruenenthal GmbH, priority 2005, published 2008)", "key": {"[1]": {"test_system": "IL-10 production of LPS-activated monocytes", "test": "Increase in IL-10 production of LPS-activated human monocytes (sandwich ELISA of culture supernatants)", "type": "cell-based", "details": "human CD14-positive monocytes, 1 h preincubation with test substance, 10 μg/ml LPS from E. coli, 24 hours; for EC200: Monocyte", "procedure": "(§1) Stimulation of human monocytes with lipopolysaccharide for secretion of IL-10 and IL-12:\n(§2) Human monocytes were isolated from peripheral blood mononuclear cells (PBMC), which were obtained from heparinized whole blood by means of a Ficoll density gradient centrifugation. For this, the PBMC were incubated with a monoclonal antibody which is directed against the monocyte-specific surface molecule CD14 and to which superparamagnetic microbeads (Miltenyi Biotech, Bergisch Gladbach) are coupled. For positive selection of the labelled monocytes from the cell mixture of the PBMC, the entire cell suspension was applied to a column with a ferromagnetic carrier matrix and this was placed in a magnetic field. The cells loaded with microbeads were thereby bound to the carrier matrix, and non-labelled cells passed through the column and were discarded. After removing the matrix from the magnetic field, the antibody-laden cells were eluted by rinsing the now demagnetized column with buffer. The purity of this CD14-positive monocyte population obtained in this way is about 95-98%. These monocytes were incubated in a density of 10^6 cells/ml of culture medium (RPMI, supplemented with 10% foetal calf serum) with the test substances, dissolved in DMSO, at 37° C. and 5% CO2 for one hour. 10 μg/ml of LPS from E. coli were then added. After 24 hours, cell-free culture supernatants were taken and tested for the content of IL-10 and IL-12.\n(§3) The concentration of IL-12 and IL-10 in the cell culture supernatants was determined by means of sandwich ELISAs using two anti-IL-12 and, respectively, IL-10 monoclonal antibodies (Biosource Europe, Fleurus, Belgium). A reference standard curve with human IL-10 and, respectively, IL-12 was included. The detection limit of the ELISAs was 15 pg/ml."}, "[2]": {"test": "Pharmacokinetics after intravenous administration to rats (plasma concentration/time curves)", "type": "in vivo", "details": "10 mg/kg each, both compounds given together, estimated from the FIGURE", "procedure": "Volumes of 2 ml/kg were administered intravenously to rats through the tail vein. After defined times, blood samples were taken from the retro-orbital plexus and plasma obtained. Plasma concentrations of both compounds were determined using valid bioanalytical methods."}, "[3]": {"test_system": "IL-12 production of LPS-activated monocytes", "test": "Inhibition of IL-12 production of LPS-activated human monocytes (sandwich ELISA of culture supernatants)", "type": "cell-based", "details": "Monocyte; human CD14-positive monocytes, 1 h preincubation with test substance, 10 μg/ml LPS from E. coli, 24 hours", "procedure": "as §1, §2, §3"}}}
{"smiles": "O=C1CC(N2C=Nc3cc(F)ccc3C2)C(=O)N1", "note": "(stereo not shown) [Example 3, 3-(7-fluoro-4H-quinazolin-3-yl)-pyrrolidine-2,5-dione]", "values": [{"measurement": "EC200", "setting": "[1]", "value": 0.4, "unit": "µg/mL"}, {"measurement": "distribution volume", "setting": "[2]", "value": 0.26, "unit": "L/kg"}, {"measurement": "IC50", "setting": "[3]", "value": 0.13, "unit": "µg/mL"}]}
{"smiles": "Cc1cccc2c1CN(C1CC(=O)NC1=O)C=N2", "note": "(stereo not shown) [Example 8b, 3-(5-methyl-4H-quinazolin-3-yl)-pyrrolidine-2,5-dione]", "values": [{"measurement": "melting point", "value": "221 to 224", "unit": "°C"}, {"measurement": "EC200", "setting": "[1]", "value": "> 50", "unit": "µg/mL"}, {"measurement": "IC50", "setting": "[3]", "value": 7.3, "unit": "µg/mL"}]}
{"smiles": "O=C1CC(N2C=Nc3cc(Cl)ccc3C2)C(=O)N1", "note": "(stereo not shown) [Example 8g, 3-(7-chloro-4H-quinazolin-3-yl)-pyrrolidine-2,5-dione]", "values": [{"measurement": "melting point", "value": 194, "unit": "°C"}, {"measurement": "EC200", "setting": "[1]", "value": 1, "unit": "µg/mL"}, {"measurement": "IC50", "setting": "[3]", "value": 0.62, "unit": "µg/mL"}]}
{"smiles": "COc1ccc2c(c1)N=CN(C1CC(=O)NC1=O)C2", "note": "(stereo not shown) [Example 9b, 3-(7-methoxy-4H-quinazolin-3-yl)-pyrrolidine-2,5-dione]", "values": [{"measurement": "melting point", "value": "174 to 184", "unit": "°C"}, {"measurement": "EC200", "setting": "[1]", "value": 16, "unit": "µg/mL"}, {"measurement": "IC50", "setting": "[3]", "value": 15, "unit": "µg/mL"}]}
{"smiles": "O=C1CC(N2C=Nc3cccc(Cl)c3C2)C(=O)N1", "note": "(stereo not shown) [Example 10a, 3-(5-chloro-4H-quinazolin-3-yl)-pyrrolidine-2,5-dione]", "values": [{"measurement": "melting point", "value": 218, "unit": "°C"}, {"measurement": "EC200", "setting": "[1]", "value": 16, "unit": "µg/mL"}, {"measurement": "IC50", "setting": "[3]", "value": 0.303, "unit": "µg/mL"}]}
{"smiles": "O=C1CC(N2C=Nc3ccc(Cl)cc3C2)C(=O)N1", "note": "(stereo not shown) [Example 10c, 3-(6-chloro-4H-quinazolin-3-yl)-pyrrolidine-2,5-dione]", "values": [{"measurement": "melting point", "value": 166, "unit": "°C"}, {"measurement": "EC200", "setting": "[1]", "value": "> 50", "unit": "µg/mL"}, {"measurement": "IC50", "setting": "[3]", "value": 1.17, "unit": "µg/mL"}]}
{"smiles": "O=C1CC(N2C=Nc3ccccc3C2)C(=O)N1", "note": "(stereo not shown) [Example 11a, 3-(4H-quinazolin-3-yl)-pyrrolidine-2,5-dione]", "values": [{"measurement": "melting point", "value": "168 to 174", "unit": "°C"}, {"measurement": "EC200", "setting": "[1]", "value": 5, "unit": "µg/mL"}, {"measurement": "IC50", "setting": "[3]", "value": 0.6, "unit": "µg/mL"}]}
{"smiles": "O=C1CC(N2C=Nc3cccc(F)c3C2)C(=O)N1", "note": "(stereo not shown) [Example 11b, 3-(5-fluoro-4H-quinazolin-3-yl)-pyrrolidine-2,5-dione]", "values": [{"measurement": "melting point", "value": "184 to 191", "unit": "°C"}, {"measurement": "EC200", "setting": "[1]", "value": 5.6, "unit": "µg/mL"}, {"measurement": "IC50", "setting": "[3]", "value": 0.514, "unit": "µg/mL"}]}
{"smiles": "O=C1CC(N2C=Nc3cccc([N+](=O)[O-])c3C2)C(=O)N1", "note": "(stereo not shown) [Example 14, 3-(5-nitro-4H-quinazolin-3-yl)-pyrrolidine-2,5-dione]", "values": [{"measurement": "EC200", "setting": "[1]", "value": 20, "unit": "µg/mL"}, {"measurement": "IC50", "setting": "[3]", "value": 5.71, "unit": "µg/mL"}]}
{"smiles": "CC1=Nc2ccccc2CN1C1CC(=O)NC1=O", "note": "(stereo not shown) [Example 15b, 3-(2-methyl-4H-quinazolin-3-yl)-pyrrolidine-2,5-dione]", "values": [{"measurement": "melting point", "value": "72 to 75", "unit": "°C"}, {"measurement": "EC200", "setting": "[1]", "value": "> 50", "unit": "µg/mL"}, {"measurement": "IC50", "setting": "[3]", "value": 4, "unit": "µg/mL"}]}
{"smiles": "CC1=Nc2cc(Cl)ccc2CN1C1CC(=O)NC1=O", "note": "(stereo not shown) [Example 15bb, 3-(7-chloro-2-methyl-4H-quinazolin-3-yl)-pyrrolidine-2,5-dione]", "values": [{"measurement": "melting point", "value": "153 to 155", "unit": "°C"}, {"measurement": "EC200", "setting": "[1]", "value": 5.6, "unit": "µg/mL"}, {"measurement": "IC50", "setting": "[3]", "value": 0.419, "unit": "µg/mL"}]}
{"smiles": "CC1=Nc2cc(F)ccc2CN1C1CC(=O)NC1=O", "note": "(stereo not shown) [Example 15cc, 3-(7-fluoro-2-methyl-4H-quinazolin-3-yl)-pyrrolidine-2,5-dione]", "values": [{"measurement": "EC200", "setting": "[1]", "value": 20, "unit": "µg/mL"}, {"measurement": "IC50", "setting": "[3]", "value": 6, "unit": "µg/mL"}]}
{"smiles": "CC1=Nc2cc(F)cc(F)c2CN1C1CC(=O)NC1=O", "note": "(stereo not shown) [Example 15e, 3-(5,7-difluoro-2-methyl-4H-quinazolin-3-yl)-pyrrolidine-2,5-dione]", "values": [{"measurement": "melting point", "value": "176 to 178", "unit": "°C"}, {"measurement": "EC200", "setting": "[1]", "value": 3, "unit": "µg/mL"}, {"measurement": "IC50", "setting": "[3]", "value": 0.52, "unit": "µg/mL"}]}
{"smiles": "CC1=Nc2cccc(Br)c2CN1C1CC(=O)NC1=O", "note": "(stereo not shown) [Example 15h, 3-(5-bromo-2-methyl-4H-quinazolin-3-yl)-pyrrolidine-2,5-dione]", "values": [{"measurement": "EC200", "setting": "[1]", "value": "> 50", "unit": "µg/mL"}, {"measurement": "IC50", "setting": "[3]", "value": 4, "unit": "µg/mL"}]}
{"smiles": "CC1=Nc2cccc(Cl)c2CN1C1CC(=O)NC1=O", "note": "(stereo not shown) [Example 15i, 3-(5-chloro-2-methyl-4H-quinazolin-3-yl)-pyrrolidine-2,5-dione]", "values": [{"measurement": "melting point", "value": "163 to 170", "unit": "°C"}, {"measurement": "EC200", "setting": "[1]", "value": 15, "unit": "µg/mL"}, {"measurement": "IC50", "setting": "[3]", "value": 0.884, "unit": "µg/mL"}]}
{"smiles": "CC1=Nc2cc(F)cc(Cl)c2CN1C1CC(=O)NC1=O", "note": "(stereo not shown) [Example 15j, 3-(5-chloro-7-fluoro-2-methyl-4H-quinazolin-3-yl)-pyrrolidine-2,5-dione]", "values": [{"measurement": "melting point", "value": "179 to 181", "unit": "°C"}, {"measurement": "EC200", "setting": "[1]", "value": 5, "unit": "µg/mL"}, {"measurement": "IC50", "setting": "[3]", "value": 0.521, "unit": "µg/mL"}]}
{"smiles": "CC1=Nc2cccc(F)c2CN1C1CC(=O)NC1=O", "note": "(stereo not shown) [Example 15l, 3-(5-fluoro-2-methyl-4H-quinazolin-3-yl)-pyrrolidine-2,5-dione]", "values": [{"measurement": "melting point", "value": 185, "unit": "°C"}, {"measurement": "EC200", "setting": "[1]", "value": 5.6, "unit": "µg/mL"}, {"measurement": "IC50", "setting": "[3]", "value": 2, "unit": "µg/mL"}]}
{"smiles": "CC1=Nc2cc(F)c(F)cc2CN1C1CC(=O)NC1=O", "note": "(stereo not shown) [Example 15u, 3-(6,7-difluoro-2-methyl-4H-quinazolin-3-yl)-pyrrolidine-2,5-dione]", "values": [{"measurement": "melting point", "value": "183 to 185", "unit": "°C"}, {"measurement": "EC200", "setting": "[1]", "value": "> 50", "unit": "µg/mL"}, {"measurement": "IC50", "setting": "[3]", "value": 1.8, "unit": "µg/mL"}]}
{"smiles": "O=C1CCC(N2C(=O)c3ccccc3C2=O)C(=O)N1", "note": "(stereo not shown) [Thalidomide, thalidomide, reference compound]", "values": [{"measurement": "EC200", "setting": "[1]", "value": 20, "unit": "µg/mL"}, {"measurement": "IC50", "setting": "[3]", "value": 0.07, "unit": "µg/mL"}]}
{"smiles": "O=C1CC(N2C(=O)c3ccccc3C2=O)C(=O)N1", "note": "(stereo not shown) [XXVIII = C1, 2-(2,5-dioxo-pyrrolidin-3-yl)-isoindole-1,3-dione, reference compound]", "values": [{"measurement": "Increase in IL-10 production EC200", "setting": "[1]", "value": "no increase"}, {"measurement": "IC50", "setting": "[3]", "value": "> 50", "unit": "µg/mL"}]}
